Experimental data as given in ChEMBL document CHEMBL3832761, “MMV Pathogen Box Bioactivity Data” (2017).
Converted amounts (≈) assume the structure as drawn.

What was measured:
Plasmodium falciparum [1] = experiment: Antimalarial activity: Asexual Blood Stage Plasmodium falciparum 3D7 IC50 (uM); format: functional, organism-based
HepG2 [2] = experiment: HepG2 inhibition at 10 uM (%) Cytotoxicity; format: functional; conditions: Homo sapiens
Plasmodium falciparum [3] = experiment: Antimalarial activity: Gametocytes Plasmodium falciparum NF54 Gametocytes Stage V IC50 (uM); format: functional, organism-based
Plasmodium falciparum [4] = experiment: Antimalarial activity: Asexual Blood Stage Plasmodium falciparum W2 IC50 (uM); format: functional, organism-based
Plasmodium falciparum [5] = experiment: Antimalarial activity: Gametocytes Plasmodium falciparum NF54 Gametocytes Stage V: inhibition at 10 uM (%); format: functional
Plasmodium falciparum [6] = experiment: Antimalarial activity: Asexual Blood Stage Plasmodium falciparum Dd2 IC50 (uM); format: functional, organism-based
HepG2 [7] = experiment: Cytotoxicity data HepG2 CC20 (uM); format: functional
Plasmodium berghei = experiment: Antimalarial activity: Liver Stage Plasmodium berghei sporozoite Luciferase assay: inhibition at 10 uM (%); format: functional
[8] = tested on: Mycobacterium tuberculosis; experiment: AntiMycobacterium tuberculosis activity 2-week Alamar Blue 7H9/ADC/Tw MIC (uM); format: functional; conditions: 336 h
[9] = tested on: Mycobacterium tuberculosis; experiment: AntiMycobacterium tuberculosis activity 1-week 7H9/DPPC/cholesterol/BSA/Tx MIC (uM); format: functional; conditions: 168 h
[10] = tested on: Mycobacterium tuberculosis; experiment: AntiMycobacterium tuberculosis activity 2-week 7H9/glucose/BSA/Tx MIC (uM); format: functional; conditions: 336 h
[11] = tested on: Mycobacterium tuberculosis; experiment: AntiMycobacterium tuberculosis activity 2-week GAST/Fe MIC (uM); format: functional; conditions: 336 h
[12] = tested on: Mycobacterium tuberculosis; experiment: AntiMycobacterium tuberculosis activity day 21 MIC99 in 7H9/2.5mM butyrate/pH6/0.1mM nitrite MIC99 (uM); format: functional; conditions: 504 h
[13] = tested on: Mycobacterium tuberculosis; experiment: AntiMycobacterium tuberculosis activity 2-week Alamar Blue 7H9/cholesterol/BSA/Tx MIC (uM); format: functional; conditions: 336 h
[14] = tested on: Mycobacterium tuberculosis; experiment: AntiMycobacterium tuberculosis activity 2-week 7H9/ADC/Tw MIC (uM); format: functional; conditions: 336 h
[15] = tested on: Mycobacterium tuberculosis; experiment: (§1) AntiMycobacterium tuberculosis activity day 10 in 7H9/2.5mM butyrate/pH6/0.1mM nitrite MIC90 (uM); format: functional; conditions: 240 h
[16] = tested on: Mycobacterium tuberculosis; experiment: AntiMycobacterium tuberculosis activity 1-week GAST/Fe MIC (uM); format: functional; conditions: 168 h
[17] = tested on: Mycobacterium tuberculosis; experiment: AntiMycobacterium tuberculosis activity 1-week 7H9/cholesterol/BSA/Tx MIC (uM); format: functional; conditions: 168 h
[18] = tested on: Mycobacterium tuberculosis; experiment: AntiMycobacterium tuberculosis activity day 21 in 7H9/2.5mM butyrate/pH6/0.1mM nitrite MIC90 (uM); format: functional; conditions: 504 h
[19] = tested on: Mycobacterium tuberculosis; experiment: AntiMycobacterium tuberculosis activity 2-week 7H9/DPPC/cholesterol/BSA/Tx MIC (uM); format: functional; conditions: 336 h
[20] = tested on: Mycobacterium tuberculosis; experiment: AntiMycobacterium tuberculosis activity 1-week 7H9/glucose/BSA/Tx MIC (uM); format: functional; conditions: 168 h
[21] = tested on: Mycobacterium tuberculosis; experiment: as §1; format: functional; conditions: 240 h; remark: listed apart in the source
HepG2 [22] = experiment: HepG2 galactose CC50 (uM) Cytotoxicity; format: functional
HepG2 [23] = experiment: HepG2 glucose CC50 (uM) Cytotoxicity; format: functional
[24] = tested on: Mycobacterium tuberculosis; experiment: AntiMycobacterium tuberculosis activity 1-week 7H9/ADC/Tw MIC (uM); format: functional; conditions: 168 h

| SMILES | IC50 (Plasmodium falciparum [1]) | inhibition at 10 µM (HepG2 [2]) | IC50 (Plasmodium falciparum [3]) | MIC [8] | MIC [9] | MIC [10] | MIC [11] | MIC [12] | MIC [13] | MIC [14] | MIC90 [15] | MIC [16] | MIC [17] | MIC90 [18] | MIC [19] | MIC [20] | MIC90 [21] | CC50 (HepG2 [22]; Homo sapiens, HepG2) | CC50 (HepG2 [23]; Homo sapiens, HepG2) | MIC [24] | further results |
| --- | --- | --- | --- | --- | --- | --- | --- | --- | --- | --- | --- | --- | --- | --- | --- | --- | --- | --- | --- | --- | --- |
| Nc1nccc2ccc(-c3ccc4nccn4c3)cc12 | 0.16 µM | 50% | 0.4 µM | – | – | – | – | – | – | – | – | – | – | – | – | – | – | – | – | – | IC50 (Plasmodium falciparum [4]): 0.37 µM; Inhibition (Plasmodium falciparum [5]): 95%; IC50 (Plasmodium falciparum [6]): 0.26 µM; CC20 (HepG2 [7]): 5.41 µM; Inhibition (Plasmodium berghei): 56% |
| CCOc1ccc(-c2nc(CNCCc3ccc(F)cc3)cs2)cc1 | – | – | – | 25 µM (≈ 8.91 µg/mL) | 12.5 µM (≈ 4.46 µg/mL) | 19 µM (≈ 6.77 µg/mL) | 12.5 µM (≈ 4.46 µg/mL) | 50 µM (≈ 17.8 µg/mL) | 12.5 µM (≈ 4.46 µg/mL) | 25 µM (≈ 8.91 µg/mL) | 50 µM (≈ 17.8 µg/mL) | 19 µM (≈ 6.77 µg/mL) | 9.4 µM (≈ 3.35 µg/mL) | 25 µM (≈ 8.91 µg/mL) | 12.5 µM (≈ 4.46 µg/mL) | 19 µM (≈ 6.77 µg/mL) | 25 µM (≈ 8.91 µg/mL) | 21.2 µM | 33.3 µM | 25 µM (≈ 8.91 µg/mL) | CC50 (HepG2 [22]): 24 µM; CC50 (HepG2 [23]): 35.4 µM |
| O=[N+]([O-])c1cn2c(n1)OC[C@@H](OCc1ccc(OC(F)(F)F)cc1)C2 [PRETOMANID] | – | – | – | 0.39 µM (≈ 0.14 µg/mL) | 0.2 µM (≈ 0.0719 µg/mL) | 0.6 µM (≈ 0.216 µg/mL) | 0.15 µM (≈ 0.0539 µg/mL) | 3.1 µM (≈ 1.11 µg/mL) | 0.3 µM (≈ 0.108 µg/mL) | 0.39 µM (≈ 0.14 µg/mL) | 0.78 µM (≈ 0.28 µg/mL) | 0.2 µM (≈ 0.0719 µg/mL) | 0.1 µM (≈ 0.0359 µg/mL) | 0.78 µM (≈ 0.28 µg/mL) | 0.2 µM (≈ 0.0719 µg/mL) | 0.39 µM (≈ 0.14 µg/mL) | 0.39 µM (≈ 0.14 µg/mL) | > 50 µM | > 50 µM | 0.39 µM (≈ 0.14 µg/mL) | – |
| CC(=O)N1CCc2cc3nc(C)cc(C)c3cc21 | – | – | – | 4.7 µM (≈ 1.13 µg/mL) | 2.3 µM (≈ 0.553 µg/mL) | > 50 µM | 0.39 µM (≈ 0.0937 µg/mL) | > 50 µM | 2.3 µM (≈ 0.553 µg/mL) | > 50 µM | > 50 µM | 0.15 µM (≈ 0.036 µg/mL) | 3.13 µM (≈ 0.752 µg/mL) | 12.5 µM (≈ 3 µg/mL) | 25 µM (≈ 6.01 µg/mL) | > 50 µM | 6.25 µM (≈ 1.5 µg/mL) | > 50 µM | > 50 µM | > 50 µM | – |
| COc1cccc(CC(=O)N2CCC(n3c(C)nc4ccc(F)cc43)CC2)c1 | 0.24 µM | 0% | 0.31 µM | – | – | – | – | – | – | – | – | – | – | – | – | – | – | – | – | – | IC50 (Plasmodium falciparum [4]): 0.25 µM; Inhibition (Plasmodium falciparum [5]): 72%; IC50 (Plasmodium falciparum [6]): 0.23 µM; CC20 (HepG2 [7]): >80 µM; Inhibition (Plasmodium berghei): 38% |
| COc1cc(Br)cc2cc(C(=O)Nc3cccc(C(F)(F)F)c3)c(=O)oc12 | – | – | – | > 50 µM | 2.3 µM (≈ 1.02 µg/mL) | 9.4 µM (≈ 4.16 µg/mL) | 4.7 µM (≈ 2.08 µg/mL) | 12.5 µM (≈ 5.53 µg/mL) | 12.5 µM (≈ 5.53 µg/mL) | > 50 µM | 12.5 µM (≈ 5.53 µg/mL) | 1.2 µM (≈ 0.531 µg/mL) | 6.25 µM (≈ 2.76 µg/mL) | 12.5 µM (≈ 5.53 µg/mL) | 9.4 µM (≈ 4.16 µg/mL) | 1.56 µM (≈ 0.69 µg/mL) | 1.5 µM (≈ 0.663 µg/mL) | > 50 µM | > 50 µM | 50 µM (≈ 22.1 µg/mL) | – |
| Cc1ccc(-c2nc(CN(Cc3ccccn3)C(C)C)cs2)o1 | > 2 µM | 47% | 0.45 µM | – | – | – | – | – | – | – | – | – | – | – | – | – | – | – | – | – | IC50 (Plasmodium falciparum [6]): > 2 µM |
